Experimental data reported in patent publication US12261337B2, “Aqueous electrolyte, redox flow battery and use thereof” (priority 2018, dated 2025).

Key:
[1] = cited from earlier work
[2] = oxidized using Oxone; storage at 60° C., also in the absence of air; after three days

| Molecule | solubility in organic solvents ([1]; organic solvents) | solubility in water ([1]; water) | stability of the charged molecule / charged electrolytes after storage [2] |
| --- | --- | --- | --- |
| C1=C[CH]([Fe][CH]2C=CC=C2)C=C1 [Ferrocene, bis(η^5-cyclopentadienyl)iron(II)] | readily soluble | sparingly soluble | – |
| ferrocene-bis-sulfonic acid [Example 1] | – | – | irreversible precipitate |
